Experimental findings from patent US7297796B2, “Sulfamoyl benzamide derivatives and methods of their use” (Adolor Corporation, priority 2004, dated 2007) are described below.

Test [1] deals with L5 SNL-induced tactile allodynia. Description: Neuropathic pain assay: L5 SNL-induced tactile allodynia (von Frey). It counts as in vivo, rat. The note with it: L5 SNL rats, n = 7-8/group. The procedure: Male Sprague-Dawley rats (120-250 g, Harlan Laboratories, Columbus, Ohio) were housed in pairs and allowed free access to food and water throughout the study. Room temperature and humidity were maintained at 21° C. and 70%, respectively. Nerve injury was produced with tight ligation of the left L5 spinal nerve (Kim, S. H., and J. M. Chung, Pain, 50, 355-363 (1992); LaBuda, C. J. and Fuchs, P. N., Exp Neurol., 163, 490-494(2000); LaBuda, C. J. and Fuchs, P. N., Neurosci Letters, 290, 137-140(2000); LaBuda, C. J., Donahue, R., Fuchs, P. N., Pain, 94, 59-63, (2001)). Briefly, animals were placed in the prone position to access the left L4-L6 spinal nerves. Under magnification, approximately one third of the L6 transverse process was removed. The L5 spinal nerve was identified and carefully dissected free from the adjacent L4 spinal nerve and then tightly ligated using 6-0 silk suture. The wound was treated with an antiseptic solution, the muscle layer was sutured, and the wound was closed with wound clips. Sham-operated surgical controls were prepared in the same manner, but the L5 spinal nerve was not […]. All housing conditions and experimental procedures were performed in accordance with the ethical guidelines of the IASP and the Adolor Corporation Animal Care and Use Committee.
Seven to ten animals per group were used for all behavioral assays. After a 7-10 day post-surgical recovery, animals were tested for baseline sensitivity to tactile stimulation of both hindpaws. Allodynic animals were defined as animals having a threshold of less than 7.5 grams of pressure applied to the injured hindpaw. Tactile sensitivity was evaluated using von Frey monofilaments before and after treatment. […] Thirty minutes after treatment, tactile sensitivity was evaluated. Five to seven days later, animals were tested using a different compound. Each animal was tested three times with different compounds. All behavioral testing was performed between 9:00 AM and 5:00 PM in a well-illuminated room with white background noise.
Animals were placed in a Plexiglas chamber (20 cm×10.5 cm×40.5 cm) and habituated for 15 minutes. The chamber was positioned on top of a mesh screen so that von Frey monofilaments could be presented to the plantar surfaces of both hindpaws. Measurements of tactile sensitivity for each hindpaw were obtained using the up/down method (Dixon, W. J., Annu Rev Pharmacol Toxicol 20, 441-462, 1980) with seven von Frey monofilaments (0.04, 0.07, 0.16, 0.4, 1, 6, and 15 grams). Each trial started with a von Frey force of 0.4 g delivered to the right hindpaw and then the left hindpaw for approximately 1-2 sec each. If there was no withdrawal response, the next higher force was delivered. If there was a response, the next lower force was delivered. This procedure was performed until no response was made at the highest force (15 grams) or until four stimuli were administered following the initial response. The 50% paw withdrawal threshold for each paw was calculated using the following formula: [Xth]log=[vFr]log+ky where [vFr] is the force of the last von Frey filament used, k=0.2249 which is the average interval (in log units) between the von Frey monofilaments, and y is a value that depends upon the pattern of withdrawal responses (Dixon, Id.). […] Testing for tactile sensitivity was performed twice and the mean 50% withdrawal value assigned as the tactile sensitivity for the right and left paws for each animal.
Tactile sensitivity for both hindpaws before and after treatments were analyzed using one-way analysis of variance (ANOVA) followed by post-hoc comparisons (protected t-test) for group differences. An alpha level of 0.05 was used for all analyses.

Test [2] deals with T1, CB1 receptor (Homo sapiens, UniProt P21554).
T1 construct: expressed in transfected cells; membranes
T1 sequence (P21554 whole entry): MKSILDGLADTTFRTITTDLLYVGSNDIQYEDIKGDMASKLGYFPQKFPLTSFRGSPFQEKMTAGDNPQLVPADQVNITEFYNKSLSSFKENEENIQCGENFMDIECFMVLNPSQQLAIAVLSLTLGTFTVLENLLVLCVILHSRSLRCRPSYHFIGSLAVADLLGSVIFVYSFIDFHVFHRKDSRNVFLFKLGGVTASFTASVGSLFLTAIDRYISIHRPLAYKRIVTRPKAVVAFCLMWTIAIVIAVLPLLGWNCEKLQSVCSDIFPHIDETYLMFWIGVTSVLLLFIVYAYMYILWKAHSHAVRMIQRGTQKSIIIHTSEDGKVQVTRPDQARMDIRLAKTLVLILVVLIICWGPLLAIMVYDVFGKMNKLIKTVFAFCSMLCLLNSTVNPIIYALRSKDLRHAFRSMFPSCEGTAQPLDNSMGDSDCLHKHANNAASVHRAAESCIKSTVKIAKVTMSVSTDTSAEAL
In words: hCB1 receptor binding, [3H]CP55940 displacement. As to conditions: human cloned CB1 receptor. The procedure: (§1) Ki values in receptor binding experiments were determined by Cheng-Prusoff correction of IC50 values derived from automated nonlinear regression analysis of sigmoidal titration curves using a three-parameter modification (slope set to 1.0) of the four-parameter equation described in Cheng, Y.-C. and W. H. Prusoff, Biochem. Pharmacol. 22:3099-3108 (1973) and DeLean et al., Am. J. Physiol. 235:E97-E102 (1978).
(§2) Chinese hamster ovary cells (CHO-K1), stably transfected with either hCB1 or hCB2, were washed two times with cold PBS, scraped from 500 cm^2 tissue culture plates, and pelleted by centrifugation at 1000×g for 10 min. The supernatant was discarded and the pellet was resuspended in Tris assay buffer (50 mM Tris HCl, pH 7.8, containing 1.0 mM EGTA, 5.0 mM MgCl2, […], and 0.5 mg/mL aprotinin), homogenized with a Polytron homogenizer (Brinkmann) at a setting of 1 for 20 sec and centrifuged at 38,000×g for 20 min at 4° C. The pellet was resuspended in Tris assay buffer and aliquots of 1 mg protein/mL were stored at −80° C. for further use.
(§3) Binding assays were performed by incubating 0.2-0.6 nM (34,000-100,000 dpm) [^3H]CP55940 with membranes prepared from cells expressing cloned human CB1 or CB2 receptors in buffer A (50 mM Tris HCl, pH 7.0, 5.0 mM MgCl2, 1.0 mM EGTA and 1.0 mg/mL fatty acid free bovine serum albumin). After incubation for 60 min at room temperature for the hCB2 binding assay or 120 min at 30° C. for the hCB1 assay, the assays were filtered through GF/C filters that had been pre-soaked overnight in 0.5% (w/v) PEI and 0.1% BSA in water. The filters were rinsed 6 times with one mL of cold wash buffer (50 mM Tris HCl, pH 7.0, 5.0 mM MgCl2, 1.0 mM EGTA and 0.75 mg/mL fatty acid free bovine serum albumin), 30 μL of MicroScint 20 was added to each filter and the radioactivity on the filters determined by scintillation spectroscopy. Nonspecific binding was determined in the presence of 10 μM WIN55212-2.

The target of test [3] is T2, CB2 receptor (Homo sapiens, UniProt P34972).
T2 construct: expressed in transfected cells; membranes
T2 sequence (P34972 whole entry): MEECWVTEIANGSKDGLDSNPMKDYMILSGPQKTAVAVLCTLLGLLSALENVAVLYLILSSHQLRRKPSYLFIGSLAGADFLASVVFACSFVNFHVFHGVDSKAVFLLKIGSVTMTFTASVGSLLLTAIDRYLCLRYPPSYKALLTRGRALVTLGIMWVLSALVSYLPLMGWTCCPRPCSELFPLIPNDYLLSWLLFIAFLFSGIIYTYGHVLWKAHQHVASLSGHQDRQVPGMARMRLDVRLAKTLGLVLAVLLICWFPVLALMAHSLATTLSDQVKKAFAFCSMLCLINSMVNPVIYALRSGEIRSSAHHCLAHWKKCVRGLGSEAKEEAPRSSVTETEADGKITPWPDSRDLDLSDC
Description: hCB2 receptor binding, [3H]CP55940 displacement. The note with it: human cloned CB2 receptor. The method, then:
as §1, §2, §3

In test [4] the target is T1, CB1 receptor. In words: hCB1-mediated stimulation of [35S]GTPγS binding. As to conditions: agonist; read-out: in vitro CB1 receptor agonist potency EC50. It counts as biochemical. The procedure: (§4) EC50 values in functional assays were also derived from automated nonlinear regression analysis of sigmoidal titration curves using the three-parameter modification of the four-parameter equation.
Chinese hamster ovary cells (CHO-K1), stably transfected with either hCB1 or hCB2, were washed two times with cold PBS, scraped from 500 cm^2 tissue culture plates, and pelleted by centrifugation at 1000×g for 10 min. The supernatant was discarded and the pellet was resuspended in Tris assay buffer (50 mM Tris HCl, pH 7.8, containing 1.0 mM EGTA, 5.0 mM MgCl2, […], and 0.5 mg/mL aprotinin), homogenized with a Polytron homogenizer (Brinkmann) at a setting of 1 for 20 sec and centrifuged at 38,000×g for 20 min at 4° C. […]
hCB1-Mediated stimulation of [^35S]GTPγS binding was measured in a mixture containing 100-150 pM [^35S]GTPγS, 150 mM NaCl, 45 mM MgCl2, […], 0.4 mM DTT, 1 mM EGTA, 1 mg/mL fatty acid free BSA, 25 μg of membrane protein and agonist in a total volume of 250 μL of buffer A in 96 well Basic Flashplates (Perkin Elmer). After incubation at room temperature for 2 hours the plates were centrifuged at 800×g at 4° C. for 5 min and the radioactivity bound to the membranes was determined by scintillation spectrometry using the Topcount (Perkin Elmer).
(GTPγS is a poorly hydrolysed GTP analogue; its binding reports G protein activation.)

In test [5] the target is T2, CB2 receptor. In words: hCB2-mediated [35S]GTPγS binding. Type of test: biochemical. As to conditions: for EC50: agonist, read-out: in vitro CB2 receptor agonist potency EC50. The procedure: as §4, §2
hCB2-Mediated [^35S]GTPγS binding was measured in the same way except the assay mixture contained […] and the incubation time was 6 hours. [^35S]GTPγS binding in rat cerebellar homogenate was determined in a mixture containing 40-60 pM [^35S]GTPγS, homogenate assay buffer (50 mM Tris-HCl, 3 mM MgCl2, 0.2 mM EGTA), 100 mM NaCl, 10 mM MgCl2, […], 20 μg homogenate protein/well and agonist in a total volume of 250 μL in 96 well Basic Flashplates (Perkin Elmer). After incubation at 30° C. for 2 hours, the plates were centrifuged at 800×g at 4° C. for 5 min and the radioactivity bound to the membrane was determined by scintillation spectrometry using the Topcount (Perkin Elmer).

`Cc1c(C(=O)c2cccc3ccccc23)c2cccc3c2n1[C@H](CN1CCOCC1)CO3` [WIN, WIN 55,212-2, reference compound]: the “Anti-Allodynia [%]” value in test [1] (2.5 mg/kg) was found to be 75.2 ± 13.8%.
`Cc1ccc(C(=O)N[C@H]2C(C)(C)[C@@H]3CC[C@@]2(C)C3)cc1S(=O)(=O)N1CCOCC1` [Compound 26, 4-Methyl-3-(morpholine-4-sul-fonyl)-N,S-(1,3,3-tri-methyl-bicyclo[2.2.1]-hept-2-yl)-benzamide]: the Ki (as a rule, a measure of affinity in units of concentration, obtained from inhibition or displacement) at CB1 receptor [2] amounted to 121 nM; at CB2 receptor [3] it was 3.7 nM. The EC50 (in general, the concentration at which the effect is half-maximal) on CB1 receptor [4] stood at 2000 nM; at CB2 receptor [5], 7.8 nM. The “Anti-Allodynia [%]” value is reported as 53.5 ± 14.2% in test [1] (1 mg/kg), 61.7 ± 13.6 % in test [1] (3 mg/kg), 61.1 ± 12.6 % in test [1] (6 mg/kg) and 44.0 ± 16.2% in test [1] (10 mg/kg).
Take `CC1(C)[C@@H]2CC[C@@](C)(C2)[C@@H]1NC(=O)c1ccc(Br)c(S(=O)(=O)N2CCCCC2)c1` [Compound 17, 4-Bromo-3-(piperidine-1-sul-fonyl)-N-(1,3,3-tri-methylbicyclo[2.2.1]hept-2-yl)-benzamide]: the results for the inhibition constant Ki at CB1 receptor [2] and at CB2 receptor [3] were 93 nM and 13.1 nM, respectively. The EC50 on CB1 receptor [4] amounted to 326 nM; on CB2 receptor [5], 18.2 nM.
As to `CN1CCCCC1Cn1cc(C(=O)c2cc([N+](=O)[O-])ccc2I)c2ccccc21` (centres unmarked) [AM1241, reference compound], the “Anti-Allodynia [%]” value in test [1] (3 mg/kg) is 27.5 ± 10.1%.
Consider `CN(Cc1ccccc1)S(=O)(=O)c1cc(C(=O)NC2C(C)(C)[C@@H]3CC[C@]2(C)C3)ccc1Br` (stereo in doubt) [Compound 23, 3-(Benzyl-methyl-sulfamoyl)-4-bromo-N-(1,3,3-tri-methyl-bicyclo[2.2.1]hept-2-yl)-benzamide], for which the Ki is over 1000 nM on CB1 receptor [2] and 10.3 nM at CB2 receptor [3]. Besides, the IC50 (as a rule, the concentration that gives 50% inhibition) at CB2 receptor [5] (antagonist, read-out: in vitro CB2 receptor antagonist potency IC50) was determined as 13.7 nM.
